“Also recorded” adds a separate entry of the source.
Legend:
GD3S mRNA expression [1] = experiment: GD3S mRNA expression by real-time RT-PCR in MDA-MB-231 cells; type: cell-based, Human
Protocol: (§1) MDA-MB-231 cells (A) or SUM159 cells (B) (5×10^5/well) of 6 well cell culture dish was treated with 25 nM or 50 nM or 75 nM or 100 nM or 125 nM concentration of Triptolide for 24 hrs. Total RNA was extracted and GD3S expression was measured by real-time RT-PCR. (C) To measure GD2^+ cells growth inhibition, 5×10^5 MDA-MB-231 cells were plated in each well of 6 well cell culture dish and treated with 25 nM or 50 nM or 75 nM or 100 nM or 125 nM concentration of Triptolide for 48 hrs or 72 hrs. After incubation, the cells were detached with trypsin and stained with anti-GD2 antibody and Sytox-Red (for dead cells). The stained cells were analyzed on LSR-II flow cytometer. Absolute number of live cells were calculated by measuring 1000 events for True Count® beads as explained methods. […] (E) Tumors sizes from the mice in experiment in FIG. 6D were measured every week after tumor engraftment and the measurements were shown in a line graph. […] Control (n=4, black line) and Triptolide (n=4, blue line), were analyzed for cumulative survival. […]
(§2) For mRNA analysis 5×10^5 MDA-MB-231 or SUM159 breast cancer cell lines were incubated with triptolide (Alexis Biochemicals, San Diego, Calif.) at 25, 50, 75, 100 and 125 nM concentrations for 24 hrs at 37° C. in six-well cell culture dishes. […] The cells were analyzed in LSR-II flow cytometer (BD). […]

GD3S mRNA expression [2] = experiment: GD3S mRNA expression by real-time RT-PCR in SUM159 cells; type: cell-based, Human; details: Sum159, 125 nM, 24 hr, dose dependent
Protocol: as §1, §2

MDA-MB-231 cells [3] = experiment: GD2+ cell growth inhibition / apoptosis by flow cytometry after triptolide; type: cell-based, Human
Protocol: as §1, §2

MDA-MB-231 cells [4] = experiment: Tumor growth inhibition and survival, MDA-MB-231 xenografts; type: in vivo, NOD/SCID mice; details: for tumor growth compared to control mice: after 4 weeks; for reduction in tumor volume: in 25% of mice, 0.15 mg/kg/day
Protocol: MDA-MB-231 cells (A) or SUM159 cells (B) (5×10^5/well) of 6 well cell culture dish was treated with 25 nM or 50 nM or 75 nM or 100 nM or 125 nM concentration of Triptolide for 24 hrs. Total RNA was extracted and GD3S expression was measured by real-time RT-PCR. (C) To measure GD2^+ cells growth inhibition, 5×10^5 MDA-MB-231 cells were plated in each well of 6 well cell culture dish and treated with 25 nM or 50 nM or 75 nM or 100 nM or 125 nM concentration of Triptolide for 48 hrs or 72 hrs. After incubation, the cells were detached with trypsin and stained with anti-GD2 antibody and Sytox-Red (for dead cells). The stained cells were analyzed on LSR-II flow cytometer. Absolute number of live cells were calculated by measuring 1000 events for True Count® beads as explained methods. (D) To determine the inhibition of tumor growth, 1×10^6 MDA-MB-231 cells were subcutaneously transplanted into NOD/SCID mice (n=8, 4 mice/group). A group of the mice were treated with 0.15 mg/kg/day of triptolide and the control group was treated with PBS everyday by intra peritoneal injections. At the end of 8 weeks, mice were sacrificed, tumors were dissected out and photographed. (E) Tumors sizes from the mice in experiment in FIG. 6D were measured every week after tumor engraftment and the measurements were shown in a line graph. (F) The survival analysis was based on Kaplan-Myer estimation and groups were compared by the log-rank test. Control (n=4, black line) and Triptolide (n=4, blue line), were analyzed for cumulative survival. Survival was defined as the time (in weeks) from transplant until death. P value represents the statistical significance.
For mRNA analysis 5×10^5 MDA-MB-231 or SUM159 breast cancer cell lines were incubated with triptolide (Alexis Biochemicals, San Diego, Calif.) at 25, 50, 75, 100 and 125 nM concentrations for 24 hrs at 37° C. in six-well cell culture dishes. For the growth inhibition studies, 3×10^5 MDA-MB-231 cells cultured in a 6 well tissue culture dishes were treated with triptolide at specified concentrations for either 24 hrs or 48 hrs. After incubation the cells were detached using trypsin and stained with anti-GD2 antibody (by indirect staining protocol) and pacific-blue conjugated Annexin-V (Invitrogen, Carlsbad, Calif.) following the manufactures instructions. The cells were analyzed in LSR-II flow cytometer (BD). The absolute number of cells were counted by measuring True Count® counting beads (Invitrogen) as per manufacturer's instructions. To examine tumor growth inhibition, survival of murine tumor xenografts was determined by subcutaneous administration of 1×10^6 MDA-MB-231 cells into 8-10 week old NOD/SCID mice. After growing for 2 weeks tumor xenografts reached a size of ˜50 mm^3 Thereafter, Triptolide (0.15 mg/Kg/day) was administered IP into the mice on a daily basis. The mice were sacrificed when the control tumors reached 2 cm or higher following institutional guidelines.
After the tumors reached 50 mm^3, the mice were randomly divided into two groups, and half of the mice treated with triptolide (0.15 mg/kg/day) while the other half were treated with PBS (control mice) every day by intraperitoneal injections. […] Fifty percent of triptolide treated breast tumors were completely tumor free and there was reduction in tumor volume by >8-fold in 25% of mice (FIG. 6D). In addition, tumors in triptolide treated mice were 3-fold smaller in size and 4-fold lighter by weight (FIG. 6E, FIG. 16). […] These findings indicate that […] plays a major role in regulating […] expression and the resulting GD2^+ population. Specifically, it affects cell proliferation and tumor initiation of GD2^+ breast cancer cells and when inhibited, greatly diminishes tumor growth and increases metastasis free survival of breast cancer bearing mice.

GD3S = details: melanoma cancer cell line; cited from earlier work
[5] = 0.15 mg/kg/day intraperitoneal, listed as triptolide

In the case of `CC(C)[C@]12O[C@H]1[C@@H]1O[C@]13[C@]1(O[C@H]1C[C@H]1C4=C(CC[C@@]13C)C(=O)OC4)[C@@H]2O` [Triptolide], the “inhibition of GD3S mRNA expression” value (GD3S mRNA expression [1]; MDA-MB-231, 125 nM, 24 hr, dose dependent) was greater than 95%, the “inhibition of GD3S expression” value (GD3S mRNA expression [1]; breast cancer cells, dose dependent manner (summary)) was greater than 95% and the “inhibition of GD3S mRNA expression” value (GD3S mRNA expression [2]) was greater than 95%. The “decrease of GD2+ cells (absolute cell counts)” value (MDA-MB-231 cells [3]; MDA-MB-231, different concentrations, 24 or 48 hours) was “dose dependent and time dependent decrease of GD2^+ cells”, the induction of apoptosis (MDA-MB-231 cells [3]; breast cancer cells / MDA-MB-231) was “induce apoptosis in MDA-MB-231 cells; also recorded: induced apoptosis in a time dependent manner” and the “treated breast tumors completely tumor free” value (MDA-MB-231 cells [4]; 0.15 mg/kg/day intraperitoneal) was “Fifty”. The “tumors lighter by weight vs control” value (MDA-MB-231 cells [4]; 0.15 mg/kg/day intraperitoneal) was 4 fold, the “tumors smaller in size vs control” value (MDA-MB-231 cells [4]; 0.15 mg/kg/day intraperitoneal) was 3 fold and the “tumor growth compared to control mice” value (MDA-MB-231 cells [4]; 0.15 mg/kg/day intraperitoneal) was “blocks tumor growth”. For the same molecule, the “tumor growth compared to control mice” value (MDA-MB-231 cells [4]; [5]) was “dramatic decrease in tumor growth”, the tumor mass (MDA-MB-231 cells [4]; FIG. 16, p<0.01) was “reduces tumor mass” and the “reduction in tumor volume” value (MDA-MB-231 cells [4]; 0.15 mg/kg/day intraperitoneal) was 7- to 8 fold. The “reduction in tumor volume” value (MDA-MB-231 cells [4]; [5]) was greater than 8 fold, the “mice in which tumors were eliminated” value (MDA-MB-231 cells [4]; intra-peritoneal administration) was 50% and the “survival of treated mice” value (MDA-MB-231 cells [4]; repeat experiment, Log-rank control vs triptolide p=0.0015) was “significantly prolonged survival”. For the same molecule, the “inhibition of GD3S” value (GD3S) was “has been shown to inhibit GD3S”.

Source: US9846160B2, “Ganglioside GD2 as a marker and target on cancer stem cells” (Board of Regents, The University of Texas System, priority 2012, dated 2017)
